This note sets out measurements from patent US8343912B2, “Antibiotic compositions for the treatment of gram negative infections” (priority 2008, dated 2013).

Values after ≈ are worked out from the molar mass of the structure shown. Numbered stars: 1 amine (or outer) side, 2 acyl side, 3 side chain; on linkers, the order of the positions; unused ones are H or OH. Bridge positions count the residues as written; N and C are the ends. Square brackets hold non-standard residues; d marks the D form. Peptide text beside a SMILES is read from it. * marks the point of attachment. NH(2-ClPh) = Clc1ccccc1N*; Dab = NCC[C@H](N)C(=O)O; CO = O=C([*:1])[*:2]

The test system of data set [1] is E. coli 1699. Description: MIC, broth microdilution. Type of data set: cell-based, Escherichia coli. The settings on record: Table 3B. The method, then: (§1) MIC testing was performed according to Clinical and Laboratory Standards Institute (CLSI) M7-A7 (2006) broth microdilution methods. Unless otherwise indicated, MIC values are provided in units of micrograms per milliliter.
(§2) One day prior to testing, individual colonies were isolated by streaking onto rich, non-selective Tryptic Soy agar with 5% lysed sheeps blood (TSAB) with incubation at 35-37° C. for 18-24 hours.
(§3) Cultures were prepared by touching 3-5 colonies into 3 mL of Cation adjusted Mueller Hinton Broth (caMHB) in a 14 mL tube (CaMHB was prepared and sterilized according to manufacturer's specifications). Cultures were grown at 37° C. 200 rpm for approximately four hours prior to density adjustment for addition to the MIC assay.
(§4) OD600 of growing cultures was measured and adjusted to approximately 10^5 colony forming units per mL (CFU/mL) in caMHB for MIC inoculation (approximately OD600 0.001).
(§5) Diluted cultures were used to inoculate 50 μL per well in broth microdilution assays (final volume 100 μl per well; compounds were prepared in two-fold dilutions).
(§6) Plates were incubated 16-20 hrs at 37° C., with shaking at 200 rpm.
(§7) OD600 was determined for all wells. Growth was defined as OD600>0.1. MICs were defined as the lowest concentration producing no visible turbidity (OD600<0.1).
On the technique in general: In broth dilution the organism is exposed to a series of concentrations in liquid medium.

Data set [2] concerns K. pneumonia 21. Briefly: MIC, broth microdilution. Type of data set: cell-based, Klebsiella pneumoniae. Conditions: Table 3B. The method, then:
as §1, §2, §3, §4, §5, §6, §7

The test system of data set [3] is Rat kidney proximal tubule cells. Description: Cell culture cytotoxicity assay (ATP bioluminescence, LLC-PK1). The settings on record: LLC-PK1, 24 hours, ATP readout. Type of data set: cell-based. The protocol: Day 1: 1×10^5 to 2×10^5 cellswere inoculated (Cell line: LLC-PK1) per flask, containing 4 mL/T25 flask of medium DMEM-F12 (50/50) media supplemented with 10% FBS (Fetal Bovine Serum). The cells were then incubated at 37° C., 5% CO2, 80% RH.
Day 4: The cell cultures were examined to determine 80% confluency. To trypsinize of the 80% confluent flasks, 4 mL of DMEM-F12-10% FBS media was prepared per flask. The media was aspirated from the flask and 5 mL of Versene was added to rinse the flask. The Versene was aspirated and 2 mL of triple Express solution (trypsin solution) was added. The cells were incubated for 5 min at room temperature and examined via microscopy for the rounding of the cells and their detachment. To speed up the reaction, the flask can be incubated at 37° C. for 3 minutes. 4 mL of media (DMEM-F12-10%FBS) was added to stop the reaction. Using a 5 mL pipette, the completed reaction was pipetted up and down to ensure that the cells were properly detached from the flask and from each others. The cell number was counted using a hemocytometer slide. 100 μL of cell suspension was transferred to a tube and 100 μL of Trypan Blue was added. Inoculum for 96 well is 10,000 cells per well. For one 96 well plate, 26.3 μL×110 well=2893 μL total. 2.9 mL of cell suspension was mixed with 8.1 mL of media DMEM-F12-10% FBS and 100 μL was distributed to each well using a multichannel pipetter. The plate was then Incubated for 24 h at 37° C.
Day 5: DMEM-F12 (no FBS) medium was dispensed into tubes with the test article to achieve final concentrations of […]. The 96 well plate was taken off the incubator and media was removed from each well using multichannel pipetter. 80 μL of serially diluted compounds of Formula (I) was added to each well. Every set of concentration was done in triplicate. Media and positive controls were added to each plate and the plates were incubated for 24 hours at 37° C.
Day 6: The plates were taken from the incubator, the media was removed from each well, and 100 μL of fresh media DMEM-F12 (this is equivalent to a rinse and the media can be replaced with PBS) was added. The media is then removed and 80 μL of cell lysis solution is added. After 5 minutes, 80 μL of sterile filtered high quality water was added to each well. Using a white or black 96 well reaction plate, 80 μL of 25× diluted ATP mix reagent (Sigma Bioluminescent Somatic Cell Assay Kit [cat #FL-ASC]) was added into one column. 80 μL of diluted ATP standards (dilutions used: 250, 500, 1000, 2000 and 4000) was added and the plate was read immediately in the topcount with a 2 second read time. In another white or black 96 well reaction plate, 80 μL of 25× diluted ATP mix reagent (plate A) was added and 80 μL of lysis-water solution was transferred to each column of plate A. The plate was then read immediately in the topcount with a 2 second read time. This process was repeated for next consecutive plate and the EC50 for certain compounds of Formula I were calculated and provided in Table 4.

Data set [4] relates to 5 different Gram negative pathogens. Description: Efficacy in 8 animal models with 5 Gram negative pathogens. Type of data set: in vivo. The settings on record: 8 models, mouse and rat. The protocol: Compound 5 was tested for efficacy in 8 models (both mouse models and rat models) with 5 different Gram negative pathogens. […]
Data set [5] concerns indole-positive Proteae, P. mirabilis, and S. marcescans. Description: In vitro activity against organisms intrinsically resistant to colistin. It counts as cell-based. The method, then:
To evaluate the potency and spectrum of compounds of Formula (I), (i.e., Compounds designated 5 and 6), a study was conducted that put together a panel of 455 Gram negative strains, which included multi-drug resistant clinical isolates selected from various surveillance programs. Table 3A lists the strains that were included in the study and the activity of Compound 5, Compound 6, and colistin (polymyxin E, abbreviated PME). Strains with acquired resistance to colistin and/or carbapenems and/or broad spectrum cephalosporins were pre-selected and included in all organism groups evaluated.
as §1

Data set [6] in a line: pH of aqueous solution. It counts as physicochemical. The settings on record: at 5 mg/mL in water.
Data set [7] in a line: Hygroscopicity. Type of data set: physicochemical.
In data set [8] the test system is female cynomolgus monkeys. Description: Seven days of repeated IV administration, kidney findings (QD/BID mg/kg doses). Conditions: 6 mg/kg BID. Type of data set: in vivo, cynomolgus monkey. The protocol:
The kidney findings in female cynomolgus monkeys following seven days of repeated IV administration of Compound 5 were evident at dose levels of 6 mg/kg BID, 6 mg/kg QD, and 9 mg/kg QD, and to a lesser degree of severity at 3 and 4.5 mg/kg BID.

The nature of data set [9]: Solubility profile.
Data set [10] can be described thus: Lipophilicity (Log P).
Data set [11] in a line: Dissociation constant (pKa).

In general, solubility refers to how much of the substance goes into solution per volume. As usually defined, the logP is a log measure of how a compound divides between an organic and an aqueous phase. What is called pKa is the negative logarithm of the acid dissociation constant. Turning to `CC(C)C[C@@H]1NC(=O)[C@@H](Cc2ccccc2)NC(=O)[C@H](CCN)NC(=O)[C@@H](NC(=O)[C@H](CCN)NC(=O)[C@@H](NC(=O)[C@H](CCN)NC(=O)Nc2ccccc2Cl)[C@@H](C)O)CCNC(=O)[C@H]([C@@H](C)O)NC(=O)[C@H](CCN)NC(=O)[C@H](CCN)NC1=O` [Compound 5, (S)-4-amino-N-((2S,3R)-1-((S)-4-amino-1-oxo-1-((3S,6S,9S,12S,15R,18S,21S)-6,9,18-tris(2-aminoethyl)-15-benzyl-3-((R)-1-hydroxyethyl)-12-isobutyl-2,5,8,11,14,17,20-heptaoxo-1,4,7,10,13,16,19-heptaazacyclotricosan-21-ylamino)butan-2-ylamino)-3-hydroxy-1-oxobutan-2-yl)-2-(3-(2-chlorophenyl)ureido)butanamide] ({NH(2-ClPh)-CO}-[Dab]T[Dab][Dab][Dab][dF]L[Dab][Dab]T; lactam 4-C), in data set [1], the “MIC E. coli 1699” value worked out at 2 micrograms/mL. In data set [2], the “MIC K. pneumonia 21” value was determined as 2 micrograms/mL. For the same molecule, in data set [3], the “EC50 Rat kidney proximal tubule cells” value is given as greater than 1000 micrograms/ml. Besides, the “models in which efficacy was demonstrated” value in [4] was 7 out of 8. In addition, in [5], the “activity against organisms intrinsically resistant to colistin” value is on record as “limited activity”. In data set [6], the pH is on record as 5.9, at 5 mg/mL in water. In addition, the Hygroscopicity result in [7] is given as “Very hygroscopic”. Also, in data set [8] (6 mg/kg QD, 9 mg/kg QD), the “blood urea nitrogen (BUN) and serum creatinine” value is listed as “increase”. For the same molecule, the kidney histopathological changes entry in data set [8] (6 and 9 mg/kg QD, lesser severity at 3 and 4.5 mg/kg BID, 7 days IV) is “minimal to mild degeneration/necrosis and regeneration of tubular epithelium”. Also, the solubility in data set [9] (ethanol) was 200 µg/mL (≈ 164 µM); in data set [9] (water), greater than 300000 µg/mL. Moreover, the log partition coefficient (logP) in data set [10] is less than -1. In data set [11], this molecule had a pKa of 8.17.
